In US20020103117A1, “Use of protein kinase-inhibitor-alpha” (priority 2000, published 2002):

How the values were obtained:
protein kinase-A = assay: Activity of protein kinase-A in cell cultures of myocytes; format: cell-based; conditions: cell cultures of myocytes (e.g., C9H2 cells)
Protocol: The protein-kinase-inhibitor alpha shortened to amino acids 14 to 22 was added to the cell cultures of myocytes (e.g., C9H2 cells, available from the American Type Culture Collection), and the activity of protein kinase-A was determined.
The 9-amino-acid-long PKI-alpha inhibitor (the gene product of the second open reader frame of the PKI gene in humans and in pigs) was added to the cell cultures of myocytes, and the expression of the PKI-alpha and the activity of protein kinase-A were determined.

functioning rat heart = assay: Action of PKI-alpha on an isolated, perfused functioning rat heart; set-up: species or system Sprague Dawley rats
Protocol: Hearts from a total of six Sprague Dawley rats with a weight of about 300 g were isolated and perfused as described in Schulze et al. (Schulze et al.; Circulation 1990: 959-69). The hemodynamic parameters including contractility, external heart work (EHW), coronary and aortic flow were recorded about 15 minutes after antegrade perfusion. Cell-permeable, recombinant PKI-alpha (amino acids 14 to 22, Calbiochem #476485) was then administered. The compound was infused directly into the atrium canula using a motor pump. The infusion rate was continuously adapted to the emission volume (the sum of the aortic and coronary flow) and increased in five-minute intervals to reach the final PKI-alpha concentrations in the perfusate of 0.5, 1.0 and 2.0 μmol/l.

[1] = PKI-alpha in perfusate 0.5, 1.0 and 2.0 μmol/l

shortened PKI-alpha: Cell-permeable, recombinant PKI-alpha comprising only amino acids 14 to 22 of the complete sequence, Calbiochem #476485
activity of protein kinase-A (protein kinase-A): dose-dependent reduction of activity | decrease of the left ventricular function, expressed as dp/dt-max (functioning rat heart; [1]): 53% | reduction of the external heart work (functioning rat heart; [1]): 43% | depression of the myocardial function (functioning rat heart; infusion up to 2 μmol): pronounced, reversible, concentration-dependent (up to 2 μmol) depression of the myocardial function
